Laboratory results: US20120003270A1, “6-SUBSTITUTED ISOFLAVONOID COMPOUNDS AND USES THEREOF” (priority 2008, published 2012)

Legend:
[1] = Free radical scavenging (DPPH); format: biochemical; settings: DPPH 0.1 mM, 20 minutes, 517 nm; read-out: Free radical scavenging ability EC50
Experimental: The antioxidant (free radical trapping) activity of test compounds was assessed using the stable free radical compound 2,2-diphenyl-1-picrylhydrazyl (DPPH). A stock solution of DPPH was prepared at a concentration of 0.1 mM in ethanol and mixed for 10 minutes prior to use. Compound (1) was reacted with DPPH for 20 minutes, after which time the absorbance at 517 nm was determined. The change in absorbance at 517 nm was compared to a reagent blank (DPPH with ethanol alone). The IC50 value was estimated as the concentration of the test compound that caused a 0.6 change in absorbance (with 1.2 absorbance units representing total scavenging of the DPPH radical).

TNFα = TNFα synthesis in RAW 264.7 (ELISA); format: cell-based, mouse; settings: LPS 50 ng/ml, 16 hrs
Experimental: (§1) The mouse macrophage cell line RAW 264.7 was cultured in DMEM supplemented with foetal calf serum (FCS), 2 mM glutamine and 50 U/ml penicillin/streptomycin. Cells were treated with either test compounds (in 0.025% DMSO) or vehicle alone, and added one hour before 50 ng/ml LPS. After incubation for 16 hrs, culture media was collected for PGE2 or TXB2 measurement by ELISA (Cayman Chemical), and TNFα measurement using an ELISA (Becton Dickinson).

PGE2 = PGE2 synthesis in RAW 264.7 (ELISA); format: cell-based, mouse; settings: LPS 50 ng/ml, 16 hrs
Experimental: as §1

iNOS = experiment: NO synthesis in LPS-stimulated RAW 264.7 (Griess); format: cell-based, mouse; settings: LPS 50 ng/ml, 16 hrs
Experimental: The mouse macrophage cell line RAW 264.7 was cultured in DMEM supplemented with foetal calf serum (FCS), 2 mM glutamine and 50 U/ml penicillin/streptomycin. Cells were treated with either the compounds of the formula (I) (in 0.025% DMSO) or vehicle alone, and added one hour before 50 ng/ml LPS, which induces iNOS and the production of NO. After incubation for 16 hrs, culture media was collected. Nitrite concentration is a quantitative indicator of NO production and was determined by the Griess Reaction. Briefly, 100 μL of Griess reagent was added to 50 μL of each supernatant in duplicate. The absorbance at 550 nm was measured (Molecular Devices, SpectraMax 250 microplate spectrophotometer, CA, USA), and nitrite concentrations were determined against a standard curve of sodium nitrite.

rabbit kidney (RK-13) = experiment: Toxicity in normal cells (MTT), RK-13; format: cell-based; settings: Oryctolagus cuniculus, RK-13, 120 h, 5 days, top concentration 150 μM, read-out: Normal cell viability IC50
Experimental: (§2) Human neonatal fibroblast foreskin (NFF—a gift from Dr. Peter Parsons, Queensland Institute of Medical Research) or rabbit kidney (RK-13—a gift from Prof. Miller Whalley, Macquarie University) cells were seeded into 96 well plates and cultured in RPMI supplemented with 10% FCS (CSL, Australia), penicillin (100 U/ml), streptomycin ([…]), L-glutamine (2 mM) and sodium bicarbonate (1.2 g/L) at 37° C. and 5% CO2 for 24 hours until cells had attached and entered log phase of growth. Test compounds were added in serial two-fold dilutions from 150 μM in triplicate and incubated for a further 5 days. MTT was then added to each well, incubated for 3 hours at 37° C., after which the medium was tipped off. Following the addition of DMSO, the absorbance for each well was read on a plate reader. The assays were repeated at least twice.

[2] = test system: neonatal fibroblast foreskin (NFF); experiment: Toxicity in normal cells (MTT), NFF; format: cell-based; settings: Homo sapiens, 120 h, 5 days, top concentration 150 μM, read-out: Normal cell viability IC50
Experimental: as §2

TXA2 = TXA2 synthesis in RAW 264.7 (ELISA); format: cell-based, mouse; settings: LPS 50 ng/ml, 16 hrs
Experimental: as §1

NFκB = NFκB promoter activity in transfected THP-1 cells (beta-lactamase reporter); format: cell-based, human; settings: THP-1 cells, TNFα-stimulated
Experimental: The assay utilizes a genetically modified THP-1 cell line and GeneBLAzer® beta-lactamase technology (Invitrogen Corp). The human THP-1 monocyte/macrophages contain a stably-transfected beta-lactamase reporter gene under control of the NFkB response element. They respond to stimulation with TNFα, which leads to activation of the NFkB signaling pathway. Co-incubation of cells with TNFα and test material allows quantitative determination of the ability of test material to inhibit TNFα-stimulated beta-lactamase production. An inflammatory index was calculated as the ratio of beta-lactamase product to beta-lactamase substrate.
In brief, genetically modified THP-1 cells were seeded into wells of a 96-well plate (50×10^3 cells/well) in the presence of RPMI 1640 medium (70 μl). TNFα was added to each well (10 μl) to give a final concentration of 7.5 ng/ml. Dialyzed bovine serum was added (10 μl). Test compounds were dissolved in DMSO (10 μL) (5 wells). Each plate contained a no-cell control (4 wells), a no-serum control (4 wells) and two serum controls. Plates were incubated for 5 h at 37° C. to allow for NFkB-stimulated beta-lactamase production. LiveBLAzer™ FRET B/G Substrate (CCF4-AM) substrate was then added to the assay. CCF4-AM is a Förster resonance energy transfer (FRET) based substrate for beta-lactamase developed by Invitrogen Corp. Once CCFA-AM enters a cell, it is converted to negatively charged CCF4 by endogenous esterases. Excitation of this substrate at 409 nm leads to efficient FRET between the coumarin and fluorescein moieties, resulting in a green fluorescence detectable at 530 nm. The presence of beta-lactamase leads to cleavage of CCF4 and results in a loss of FRET, resulting in a robust blue fluorescent signal detectable at 460 nm. Thus, activity of beta-lactamase (a marker of NFkB-promoter activity) is measured as a product to substrate ratio (blue/green fluorescence ratio: 460 nm/530 nm).

THP-1 cells = experiment: Cytotoxicity in the THP-1 NFκB assay; format: cell-based, human; settings: at active concentrations
RAW 264.7 = experiment: Toxicity in RAW 264.7; format: cell-based, mouse

EC50 [1]: > 100 µM
SMILES: COC(=O)CNCc1cc2c(cc1O)OCC(c1ccc(O)cc1)=C2 [Compound (2)]
TNFα (TNFα; 1 μM): 35085.88 ± 2273.16 pg/mL | TNFα (TNFα; 10 μM): 46065.55 ± 1234.32 pg/mL | PGE2 (PGE2; 1 μM): 3180.37 ± 127.29 pg/mL | PGE2 (PGE2; 10 μM): 2070.69 ± 168.81 pg/mL | NO (iNOS; 1 μM): 16.41 ± 0.0 µM | NO (iNOS; 10 μM): 10.22 ± 0.15 µM | IC50 (rabbit kidney (RK-13)): > 150 µM | IC50 [2]: 145 ± 8.1 µM | TXB2 (TXA2; 1 μM): 16.71 ± 3.43 pg/mL | TXB2 (TXA2; 10 μM): 17.58 ± 7.99 pg/mL | Effect on promoter activity of NFκB (in words) (NFκB): active at the highest concentration only | Cytotoxicity (THP-1 cells): absence of cytotoxicity | Effect on the viability of RAW 264.7 cells (RAW 264.7): little effect on the viability
